Measured values taken from US20170290774A1, “NEUROKININ-1 RECEPTOR ANTAGONIST COMPOSITION FOR TREATMENT OF DISEASES AND CONDITIONS OF THE RESPIRATORY TRACT” (PLUS VITECH, S.L., priority 2014, published 2017).
Values joined by “and” are separate entries in the source; they are usually repeats but may differ in a detail not shown here. Identical values can stand only once.

Experiment: Tissue concentration of aprepitant by HPLC after oral or inhaled administration to rabbits
Type: in vivo, New Zealand albino rabbits
Settings: for concentration at 7 days: New Zealand White (albino), rabbit
Description: Herein, New Zealand albino rabbits (New Zealand White Rabbits) with an initial average weight of approximately 3 kg were used. The rabbits were fed ad libitum and were monitored daily to check that signs of toxicity had not appeared. […] This mixture was administered as an aerosol to the airways of a group of 3 of said rabbits (Group 5) in a dose of 0.05 mg/kg body weight per day, to another group of three rabbits (Group 6) in a dose of 0.1 mg/kg body weight per day, to another group of three rabbits (group 7) in a dose of 0.2 mg/kg body weight per day and to another group of three rabbits (Group 8) in a dose of 0.4 mg/kg body weight per day. […] After seven days of treatment all animals were euthanized and necropsied. […] Samples were taken at the peripheral level of the lung parenchyma, just below the pleural surface. Tissue samples were also taken from the nasal cavity, pharynx, larynx and bronchi. […] The average is the arithmetic average calculated for each row or column of each table. The SD is the standard deviation, calculated for each row or column of each table.

[1] = Group 1, oral 10 mg/kg per day, seven days, individual cases, 10 mg/kg/day
[2] = Group 2, oral 40 mg/kg per day, seven days, individual cases, 40 mg/kg/day
[3] = Group 3, oral 80 mg/kg per day, seven days, individual cases, 80 mg/kg/day
[4] = Group 4, oral 100 mg/kg per day, seven days, individual cases, 100 mg/kg/day
[5] = Group 5, inhalation (aerosol, olive oil) 0.05 mg/kg per day, seven days, individual cases, 0.05 mg/kg/day
[6] = Group 6, inhalation (aerosol, olive oil) 0.1 mg/kg per day, seven days, individual cases, 0.1 mg/kg/day
[7] = Group 7, inhalation (aerosol, olive oil) 0.2 mg/kg per day, seven days, individual cases, 0.2 mg/kg/day
[8] = Group 8, inhalation (aerosol, olive oil) 0.4 mg/kg per day, seven days, individual cases, 0.4 mg/kg/day

C[C@@H](OC1OCCN(Cc2nc(=O)[nH][nH]2)C1c1ccc(F)cc1)c1cc(C(F)(F)F)cc(C(F)(F)F)c1 (stereo in doubt) [Aprepitant, 5-([(2R,3S)-2-((R)-1-[3,5-bis(trifluoromethyl)phenyl]ethoxy)-3-(4-fluorophenyl)morpholino]methyl)-1H-1,2,4-triazol-3(2H)-one]
Lung concentration of aprepitant LIPD (right inferior lobe) [1]: 0.9 micrograms of aprepitant per gram of lung tissue and 1.0 micrograms of aprepitant per gram of lung tissue
Lung concentration of aprepitant LIPI (left inferior lobe) [1]: 1.4 micrograms of aprepitant per gram of lung tissue and 1.1 micrograms of aprepitant per gram of lung tissue
Lung concentration of aprepitant LMPD (right middle lobe) [1]: 1.4 micrograms of aprepitant per gram of lung tissue and 1.5 micrograms of aprepitant per gram of lung tissue
Lung concentration of aprepitant LSPD (right superior lobe) [1]: 1.1 micrograms of aprepitant per gram of lung tissue and 0.4 micrograms of aprepitant per gram of lung tissue and 1.2 micrograms of aprepitant per gram of lung tissue
Lung concentration of aprepitant LSPI (left superior lobe) [1]: 1.0 micrograms of aprepitant per gram of lung tissue and 0.5 micrograms of aprepitant per gram of lung tissue
Lung concentration of aprepitant LIPD (right inferior lobe) [2]: 3.1 micrograms of aprepitant per gram of lung tissue and 4.2 micrograms of aprepitant per gram of lung tissue
Lung concentration of aprepitant LIPI (left inferior lobe) [2]: 2.8 micrograms of aprepitant per gram of lung tissue and 4.0 micrograms of aprepitant per gram of lung tissue
Lung concentration of aprepitant LMPD (right middle lobe) [2]: 2.9 micrograms of aprepitant per gram of lung tissue and 5.1 micrograms of aprepitant per gram of lung tissue
Lung concentration of aprepitant LSPD (right superior lobe) [2]: 4.1 micrograms of aprepitant per gram of lung tissue and 3.3 micrograms of aprepitant per gram of lung tissue
Lung concentration of aprepitant LSPI (left superior lobe) [2]: 4.2 micrograms of aprepitant per gram of lung tissue and 3.6 micrograms of aprepitant per gram of lung tissue
Lung concentration of aprepitant LIPD (right inferior lobe) [3]: 6.3 micrograms of aprepitant per gram of lung tissue and 5.3 micrograms of aprepitant per gram of lung tissue
Lung concentration of aprepitant LIPI (left inferior lobe) [3]: 3.4 micrograms of aprepitant per gram of lung tissue and 4.3 micrograms of aprepitant per gram of lung tissue
Lung concentration of aprepitant LMPD (right middle lobe) [3]: 5.5 micrograms of aprepitant per gram of lung tissue and 5.3 micrograms of aprepitant per gram of lung tissue
Lung concentration of aprepitant LSPD (right superior lobe) [3]: 4.2 micrograms of aprepitant per gram of lung tissue and 3.3 micrograms of aprepitant per gram of lung tissue
Lung concentration of aprepitant LSPI (left superior lobe) [3]: 5.1 micrograms of aprepitant per gram of lung tissue
Lung concentration of aprepitant LIPD (right inferior lobe) [4]: 5.9 micrograms of aprepitant per gram of lung tissue and 6.1 micrograms of aprepitant per gram of lung tissue
Lung concentration of aprepitant LIPI (left inferior lobe) [4]: 4.8 micrograms of aprepitant per gram of lung tissue and 5.1 micrograms of aprepitant per gram of lung tissue
Lung concentration of aprepitant LMPD (right middle lobe) [4]: 5.1 micrograms of aprepitant per gram of lung tissue and 5.4 micrograms of aprepitant per gram of lung tissue
Lung concentration of aprepitant LSPD (right superior lobe) [4]: 4.8 micrograms of aprepitant per gram of lung tissue and 4.3 micrograms of aprepitant per gram of lung tissue
Lung concentration of aprepitant LSPI (left superior lobe) [4]: 5.2 micrograms of aprepitant per gram of lung tissue and 4.5 micrograms of aprepitant per gram of lung tissue
Lung concentration of aprepitant LIPD (right inferior lobe) [5]: 1.5 micrograms of aprepitant per gram of lung tissue and 1.6 micrograms of aprepitant per gram of lung tissue
Lung concentration of aprepitant LIPI (left inferior lobe) [5]: 1.5 micrograms of aprepitant per gram of lung tissue and 1.4 micrograms of aprepitant per gram of lung tissue
Lung concentration of aprepitant LMPD (right middle lobe) [5]: 1.6 micrograms of aprepitant per gram of lung tissue and 1.5 micrograms of aprepitant per gram of lung tissue
Lung concentration of aprepitant LSPD (right superior lobe) [5]: 1.4 micrograms of aprepitant per gram of lung tissue and 1.5 micrograms of aprepitant per gram of lung tissue
Lung concentration of aprepitant LSPI (left superior lobe) [5]: 1.5 micrograms of aprepitant per gram of lung tissue
Lung concentration of aprepitant LMPD (right middle lobe) (Group 6, inhalation (aerosol, olive oil) 0.1 mg/kg per day, seven days, individual cases): 2.9 micrograms of aprepitant per gram of lung tissue
Lung concentration of aprepitant LIPD (right inferior lobe) [6]: 2.9 micrograms of aprepitant per gram of lung tissue and 2.8 micrograms of aprepitant per gram of lung tissue
Lung concentration of aprepitant LIPI (left inferior lobe) [6]: 2.8 micrograms of aprepitant per gram of lung tissue and 2.9 micrograms of aprepitant per gram of lung tissue
Lung concentration of aprepitant LSPD (right superior lobe) [6]: 2.8 micrograms of aprepitant per gram of lung tissue and 2.9 micrograms of aprepitant per gram of lung tissue
Lung concentration of aprepitant LSPI (left superior lobe) [6]: 2.7 micrograms of aprepitant per gram of lung tissue and 2.8 micrograms of aprepitant per gram of lung tissue
Lung concentration of aprepitant LIPD (right inferior lobe) (Group 7, inhalation (aerosol, olive oil) 0.2 mg/kg per day, seven days, individual cases): 6.0 micrograms of aprepitant per gram of lung tissue
Lung concentration of aprepitant LIPI (left inferior lobe) [7]: 6.0 micrograms of aprepitant per gram of lung tissue and 5.9 micrograms of aprepitant per gram of lung tissue
Lung concentration of aprepitant LMPD (right middle lobe) [7]: 6.0 micrograms of aprepitant per gram of lung tissue and 6.1 micrograms of aprepitant per gram of lung tissue
Lung concentration of aprepitant LSPD (right superior lobe) [7]: 5.9 micrograms of aprepitant per gram of lung tissue and 6.0 micrograms of aprepitant per gram of lung tissue
Lung concentration of aprepitant LSPI (left superior lobe) [7]: 6.1 micrograms of aprepitant per gram of lung tissue and 5.9 micrograms of aprepitant per gram of lung tissue
Lung concentration of aprepitant LIPD (right inferior lobe) [8]: 10.4 micrograms of aprepitant per gram of lung tissue and 10.0 micrograms of aprepitant per gram of lung tissue
Lung concentration of aprepitant LIPI (left inferior lobe) [8]: 10.1 micrograms of aprepitant per gram of lung tissue and 9.9 micrograms of aprepitant per gram of lung tissue
Lung concentration of aprepitant LMPD (right middle lobe) [8]: 10.1 micrograms of aprepitant per gram of lung tissue and 9.9 micrograms of aprepitant per gram of lung tissue
Lung concentration of aprepitant LSPD (right superior lobe) [8]: 10.0 micrograms of aprepitant per gram of lung tissue and 9.8 micrograms of aprepitant per gram of lung tissue
Lung concentration of aprepitant LSPI (left superior lobe) [8]: 10.2 micrograms of aprepitant per gram of lung tissue and 10.0 micrograms of aprepitant per gram of lung tissue
concentration at 7 days (in vivo, 0.05 mg/kg/day, Lung concentration of aprepitant, Average ± SD of the five lobes per case): 1400 ng/g
concentration at 7 days (in vivo, 0.1 mg/kg/day, Lung concentration of aprepitant, Average ± SD of the five lobes per case): 2800 ng/g
concentration at 7 days (in vivo, 0.2 mg/kg/day, Lung concentration of aprepitant, Average ± SD of the five lobes per case): 6020 ng/g
concentration at 7 days (in vivo, po, 100 mg/kg/day, Lung concentration of aprepitant, Average ± SD of the five lobes per case): 5240 ng/g
concentration at 7 days (lung, left inferior lobe, inhaled, 0.05 mg/kg/day, Lung concentration of aprepitant LIPI (left inferior lobe), Group 5, inhalation (aerosol, olive oil) 0.05 mg/kg per day, seven days, individual cases): 1500 ng/g
concentration at 7 days (lung, left inferior lobe, inhaled, 0.05 mg/kg/day, Lung concentration of aprepitant LIPI, Average ± SD of cases, Group 5, inhalation (aerosol, olive oil) 0.05 mg/kg per day, seven days): 1400 ng/g
concentration at 7 days (lung, left inferior lobe, inhaled, 0.1 mg/kg/day, Lung concentration of aprepitant LIPI (left inferior lobe), Group 6, inhalation (aerosol, olive oil) 0.1 mg/kg per day, seven days, individual cases): 2800 ng/g
concentration at 7 days (lung, left inferior lobe, inhaled, 0.1 mg/kg/day, Lung concentration of aprepitant LIPI, Average ± SD of cases, Group 6, inhalation (aerosol, olive oil) 0.1 mg/kg per day, seven days): 2800 ng/g
concentration at 7 days (lung, left inferior lobe, inhaled, 0.2 mg/kg/day, Lung concentration of aprepitant LIPI (left inferior lobe), Group 7, inhalation (aerosol, olive oil) 0.2 mg/kg per day, seven days, individual cases): 5900 ng/g
concentration at 7 days (lung, left inferior lobe, po, 100 mg/kg/day, Lung concentration of aprepitant LIPI (left inferior lobe), Group 4, oral 100 mg/kg per day, seven days, individual cases): 6100 ng/g
concentration at 7 days (lung, left inferior lobe, po, 100 mg/kg/day, Lung concentration of aprepitant LIPI, Average ± SD of cases, Group 4, oral 100 mg/kg per day, seven days): 5300 ng/g
concentration at 7 days (lung, left superior lobe, inhaled, 0.05 mg/kg/day, Lung concentration of aprepitant LSPI (left superior lobe), Group 5, inhalation (aerosol, olive oil) 0.05 mg/kg per day, seven days, individual cases): 1400 ng/g
concentration at 7 days (lung, left superior lobe, inhaled, 0.05 mg/kg/day, Lung concentration of aprepitant LSPI, Average ± SD of cases, Group 5, inhalation (aerosol, olive oil) 0.05 mg/kg per day, seven days): 1400 ng/g
concentration at 7 days (lung, left superior lobe, inhaled, 0.1 mg/kg/day, Lung concentration of aprepitant LSPI (left superior lobe), Group 6, inhalation (aerosol, olive oil) 0.1 mg/kg per day, seven days, individual cases): 2800 ng/g
concentration at 7 days (lung, left superior lobe, inhaled, 0.1 mg/kg/day, Lung concentration of aprepitant LSPI, Average ± SD of cases, Group 6, inhalation (aerosol, olive oil) 0.1 mg/kg per day, seven days): 2700 ng/g
concentration at 7 days (lung, left superior lobe, inhaled, 0.2 mg/kg/day, Lung concentration of aprepitant LSPI (left superior lobe), Group 7, inhalation (aerosol, olive oil) 0.2 mg/kg per day, seven days, individual cases): 6100 ng/g
concentration at 7 days (lung, left superior lobe, po, 100 mg/kg/day, Lung concentration of aprepitant LSPI (left superior lobe), Group 4, oral 100 mg/kg per day, seven days, individual cases): 4300 ng/g
concentration at 7 days (lung, left superior lobe, po, 100 mg/kg/day, Lung concentration of aprepitant LSPI, Average ± SD of cases, Group 4, oral 100 mg/kg per day, seven days): 4600 ng/g
concentration at 7 days (lung, right inferior lobe, inhaled, 0.05 mg/kg/day, Lung concentration of aprepitant LIPD (right inferior lobe), Group 5, inhalation (aerosol, olive oil) 0.05 mg/kg per day, seven days, individual cases): 1500 ng/g
concentration at 7 days (lung, right inferior lobe, inhaled, 0.05 mg/kg/day, Lung concentration of aprepitant LIPD, Average ± SD of cases, Group 5, inhalation (aerosol, olive oil) 0.05 mg/kg per day, seven days): 1500 ng/g
concentration at 7 days (lung, right inferior lobe, inhaled, 0.1 mg/kg/day, Lung concentration of aprepitant LIPD (right inferior lobe), Group 6, inhalation (aerosol, olive oil) 0.1 mg/kg per day, seven days, individual cases): 2800 ng/g
concentration at 7 days (lung, right inferior lobe, inhaled, 0.1 mg/kg/day, Lung concentration of aprepitant LIPD, Average ± SD of cases, Group 6, inhalation (aerosol, olive oil) 0.1 mg/kg per day, seven days): 2800 ng/g
concentration at 7 days (lung, right inferior lobe, inhaled, 0.2 mg/kg/day, Lung concentration of aprepitant LIPD (right inferior lobe), Group 7, inhalation (aerosol, olive oil) 0.2 mg/kg per day, seven days, individual cases): 6000 ng/g
concentration at 7 days (lung, right inferior lobe, inhaled, 0.2 mg/kg/day, Lung concentration of aprepitant LIPD, Average ± SD of cases, Group 7, inhalation (aerosol, olive oil) 0.2 mg/kg per day, seven days): 6000 ng/g
concentration at 7 days (lung, right inferior lobe, po, 100 mg/kg/day, Lung concentration of aprepitant LIPD (right inferior lobe), Group 4, oral 100 mg/kg per day, seven days, individual cases): 4900 ng/g
